Tested on: 292921-168-R-J2-PDC KRAS tumor spheroid viability
Experiment: Anticancer human tumor 292921-168-R-J2-PDC patient-derived pancreatic carcinoma cell line growth inhibition [KRAS2]
Conditions: spheroids with HUVEC and MSC; for IC50: curve of first compound; for viability, T/C: stronger effect = lower value
Outline: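 KRAS-mutant tumor cells were grown as spheroids with HUVEC endothelial cells and human MSCs as stroma. Targeted agents were tested alone and with KRAS pathway inhibitors. Doses started at or near clinical Cmax, or 10 microM, descending half-log.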

[1] = second compound 0.0316 µM, first compound 0.01 µM
[2] = second compound 0.0316 µM, first compound 0.0316 µM
[3] = second compound 0.1 µM, first compound 0.000316 µM
[4] = second compound 0.1 µM, first compound 0.001 µM
[5] = second compound 0.1 µM, first compound 0.00316 µM
[6] = second compound 0.1 µM, first compound 0.01 µM
[7] = second compound 0.1 µM, first compound 0.0316 µM
[8] = second compound 0.316 µM, first compound 0.000316 µM
[9] = second compound 0.316 µM, first compound 0.001 µM
[10] = second compound 0.316 µM, first compound 0.00316 µM
[11] = second compound 0.316 µM, first compound 0.01 µM
[12] = second compound 0.316 µM, first compound 0.0316 µM
[13] = second compound 1 µM, first compound 0.000316 µM
[14] = second compound 1 µM, first compound 0.001 µM
[15] = second compound 1 µM, first compound 0.00316 µM
[16] = second compound 1 µM, first compound 0.01 µM
[17] = second compound 1 µM, first compound 0.0316 µM
[18] = second compound 3.16 µM, first compound 0.000316 µM
[19] = second compound 3.16 µM, first compound 0.001 µM
[20] = second compound 3.16 µM, first compound 0.00316 µM
[21] = second compound 3.16 µM, first compound 0.01 µM
[22] = second compound 3.16 µM, first compound 0.0316 µM
[23] = second compound 0.1 µM, first compound 0.1 µM
[24] = second compound 0.316 µM, first compound 0.1 µM
[25] = second compound 1 µM, first compound 0.1 µM
[26] = second compound 3.16 µM, first compound 0.1 µM
[27] = second compound 10 µM, first compound 0.0316 µM
[28] = second compound 10 µM, first compound 0.1 µM
[29] = second compound 0.1 µM, first compound 0.316 µM
[30] = second compound 0.1 µM, first compound 1 µM
[31] = second compound 0.1 µM, first compound 3.16 µM
[32] = second compound 0.316 µM, first compound 0.316 µM
[33] = second compound 0.316 µM, first compound 1 µM
[34] = second compound 0.316 µM, first compound 3.16 µM
[35] = second compound 1 µM, first compound 0.316 µM
[36] = second compound 1 µM, first compound 1 µM
[37] = second compound 1 µM, first compound 3.16 µM
[38] = second compound 3.16 µM, first compound 0.316 µM
[39] = second compound 3.16 µM, first compound 1 µM
[40] = second compound 3.16 µM, first compound 3.16 µM
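Further: drug exposure lasted seven days after spheroids formed for three days.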
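Wherever viability, T/C is given: percent of DMSO vehicle control viability which is 100%.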

Structure (SMILES): CC(=O)Nc1cccc(-n2c(=O)n(C3CC3)c(=O)c3c(Nc4ccc(I)cc4F)n(C)c(=O)c(C)c32)c1 + C=CC(=O)N1CCN(c2nc(OCC3CCCN3C)nc3c2CCN(c2cccc4cccc(C)c24)C3)CC1CC#N
- IC50 (second compound 0.0316 µM): 0.281 nM
- IC50 (second compound 0.1 µM): 0.238 nM
- IC50 (second compound 0.316 µM): 0.145 nM
- IC50 (second compound 1 µM): < 0.1 nM
- IC50 (second compound 3.16 µM): < 0.1 nM
- viability, T/C (second compound 0.0316 µM, first compound 0.0001 µM): 78.2%
- viability, T/C (second compound 0.0316 µM, first compound 0.000316 µM): 46.6%
- viability, T/C (second compound 0.0316 µM, first compound 0.001 µM): 27.2%
- viability, T/C (second compound 0.0316 µM, first compound 0.00316 µM): 18.6%
- viability, T/C [1]: 11.9%
- viability, T/C [2]: 8.52%
- viability, T/C (second compound 0.1 µM, first compound 0.0001 µM): 63.3%
- viability, T/C [3]: 45.9%
- viability, T/C [4]: 29.1%
- viability, T/C [5]: 17.6%
- viability, T/C [6]: 12.4%
- viability, T/C [7]: 7.9%
- viability, T/C (second compound 0.316 µM, first compound 0.0001 µM): 56.5%
- viability, T/C [8]: 36.5%
- viability, T/C [9]: 23%
- viability, T/C [10]: 13.5%
- viability, T/C [11]: 10.3%
- viability, T/C [12]: 7.06%
- viability, T/C (second compound 1 µM, first compound 0.0001 µM): 42.7%
- viability, T/C [13]: 21.9%
- viability, T/C [14]: 13.3%
- viability, T/C [15]: 9.17%
- viability, T/C [16]: 6.87%
- viability, T/C [17]: 5.25%
- viability, T/C (second compound 3.16 µM, first compound 0.0001 µM): 0.18%
- viability, T/C [18]: 0.2%
- viability, T/C [19]: 0.11%
- viability, T/C [20]: 0.27%
- viability, T/C [21]: 0.11%
- viability, T/C [22]: 0.17%

Structure (SMILES): CN(C)C/C=C/C(=O)Nc1cc2c(Nc3ccc(F)c(Cl)c3)ncnc2cc1O[C@H]1CCOC1 + CNCc1ccccc1-c1csc(C(C)Nc2nc(C)nc3cc(OC)c(OC)cc23)c1
- IC50 (second compound 0.1 µM): > 100 nM
- IC50 (second compound 0.316 µM): > 100 nM
- IC50 (second compound 1 µM): 48.9 nM
- IC50 (second compound 3.16 µM): 1.93 nM
- IC50 (second compound 10 µM): < 0.316 nM
- viability, T/C [3]: 90.9%
- viability, T/C [4]: 86.3%
- viability, T/C [5]: 72.4%
- viability, T/C [6]: 70.3%
- viability, T/C [7]: 64.5%
- viability, T/C [23]: 57.5%
- viability, T/C [8]: 82.4%
- viability, T/C [9]: 80.6%
- viability, T/C [10]: 70.6%
- viability, T/C [11]: 71.1%
- viability, T/C [12]: 58%
- viability, T/C [24]: 55%
- viability, T/C [13]: 74.4%
- viability, T/C [14]: 62%
- viability, T/C [15]: 60%
- viability, T/C [16]: 59.6%
- viability, T/C [17]: 56.1%
- viability, T/C [25]: 43.7%
- viability, T/C [18]: 105%
- viability, T/C [19]: 91.1%
- viability, T/C [20]: 0.17%
- viability, T/C [21]: 0.11%
- viability, T/C [22]: 74.7%
- viability, T/C [26]: 1.26%
- viability, T/C (second compound 10 µM, first compound 0.000316 µM): 0.13%
- viability, T/C (second compound 10 µM, first compound 0.001 µM): 0.13%
- viability, T/C (second compound 10 µM, first compound 0.00316 µM): 0.09%
- viability, T/C (second compound 10 µM, first compound 0.01 µM): 0.08%
- viability, T/C [27]: 0.13%
- viability, T/C [28]: 0.17%

Structure (SMILES): COc1cc(Nc2ncc3c(n2)-c2ccc(Cl)cc2C(c2c(F)cccc2OC)=NC3)ccc1C(=O)O + CC1OCC2(CCN(c3cnc(Sc4ccnc(N)c4Cl)c(N)n3)CC2)C1N
- IC50 (second compound 0.1 µM): < 31.6 nM
- IC50 (second compound 0.316 µM): < 31.6 nM
- IC50 (second compound 1 µM): < 31.6 nM
- IC50 (second compound 3.16 µM): < 31.6 nM
- IC50 (second compound 10 µM): < 31.6 nM
- viability, T/C [7]: 22.8%
- viability, T/C [23]: 21.9%
- viability, T/C [29]: 22.8%
- viability, T/C [30]: 22.3%
- viability, T/C [31]: 17.3%
- viability, T/C (second compound 0.1 µM, first compound 10 µM): 14.1%
- viability, T/C [12]: 21.1%
- viability, T/C [24]: 18.9%
- viability, T/C [32]: 22.8%
- viability, T/C [33]: 19.9%
- viability, T/C [34]: 16.8%
- viability, T/C (second compound 0.316 µM, first compound 10 µM): 10.6%
- viability, T/C [17]: 18.3%
- viability, T/C [25]: 15.5%
- viability, T/C [35]: 18.5%
- viability, T/C [36]: 15.5%
- viability, T/C [37]: 13.6%
- viability, T/C (second compound 1 µM, first compound 10 µM): 10.8%
- viability, T/C [22]: 18.1%
- viability, T/C [26]: 16.4%
- viability, T/C [38]: 16.9%
- viability, T/C [39]: 14.9%
- viability, T/C [40]: 12.8%
- viability, T/C (second compound 3.16 µM, first compound 10 µM): 10.2%
- viability, T/C [27]: 16%
- viability, T/C [28]: 16.7%
- viability, T/C (second compound 10 µM, first compound 0.316 µM): 16.1%
- viability, T/C (second compound 10 µM, first compound 1 µM): 15.7%
- viability, T/C (second compound 10 µM, first compound 3.16 µM): 14%
- viability, T/C (second compound 10 µM, first compound 10 µM): 10.3%

Structure (SMILES): CC1COCCN1c1cc(-c2ccnn2C)c2ccnc(-c3ccn[nH]3)c2n1 (stereo not given) + C=CC(=O)N1CCN(c2nc(OCC3CCCN3C)nc3c2CCN(c2cccc4cccc(C)c24)C3)CC1CC#N
- IC50 (second compound 0.0316 µM): < 10 nM
- IC50 (second compound 0.1 µM): < 10 nM
- IC50 (second compound 0.316 µM): < 10 nM
- IC50 (second compound 1 µM): < 10 nM
- IC50 (second compound 3.16 µM): < 10 nM
- viability, T/C [1]: 38.6%
- viability, T/C [2]: 16.4%
- viability, T/C (second compound 0.0316 µM, first compound 0.1 µM): 11.5%
- viability, T/C (second compound 0.0316 µM, first compound 0.316 µM): 10%
- viability, T/C (second compound 0.0316 µM, first compound 1 µM): 11.9%
- viability, T/C (second compound 0.0316 µM, first compound 3.16 µM): 12.6%
- viability, T/C [6]: 33.6%
- viability, T/C [7]: 14%
- viability, T/C [23]: 9.02%
- viability, T/C [29]: 9.07%
- viability, T/C [30]: 11%
- viability, T/C [31]: 11.7%
- viability, T/C [11]: 22.6%
- viability, T/C [12]: 11%
- viability, T/C [24]: 7.47%
- viability, T/C [32]: 8.07%
- viability, T/C [33]: 9.3%
- viability, T/C [34]: 10.8%
- viability, T/C [16]: 8.66%
- viability, T/C [17]: 6.29%
- viability, T/C [25]: 5.9%
- viability, T/C [35]: 6.42%
- viability, T/C [36]: 6.98%
- viability, T/C [37]: 7.65%
- viability, T/C [21]: 0.1%
- viability, T/C [22]: 0.09%
- viability, T/C [26]: 0.08%
- viability, T/C [38]: 0.09%
- viability, T/C [39]: 0.27%
- viability, T/C [40]: 0.15%
